{"source": "patent US5834463A", "about": "“Condensed heterocyclic compounds, their production and use” (Takeda Chemical Industries, Ltd., priority 1994, dated 1998)"}
{"biological_target": "T1, human GnRH receptor (Homo sapiens, UniProt P30968)", "T1 construct": "expressed in transfected cells; host or cells: CHO (Chinese Hamster Ovary) cells, membrane fraction", "T1 sequence (P30968 1-328)": "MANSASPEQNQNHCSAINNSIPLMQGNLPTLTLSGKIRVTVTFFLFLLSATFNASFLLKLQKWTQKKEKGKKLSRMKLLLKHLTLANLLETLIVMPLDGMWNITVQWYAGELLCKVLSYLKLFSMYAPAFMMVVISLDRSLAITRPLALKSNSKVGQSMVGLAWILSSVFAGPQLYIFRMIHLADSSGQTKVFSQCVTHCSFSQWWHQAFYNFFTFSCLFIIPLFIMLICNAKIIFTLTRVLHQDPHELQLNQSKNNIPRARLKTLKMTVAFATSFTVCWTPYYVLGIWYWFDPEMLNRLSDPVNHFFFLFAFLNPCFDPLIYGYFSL", "test": "Test for inhibition of ^125 I-leuprorelin binding to human GnRH receptor", "settings": "membrane fraction of CHO cells expressing human GnRH receptors, 25° C., 60 minutes, read-out: Binding Inhibitory Activity (IC50, μM) for human GnRH receptor", "protocol": "(A) Preparation of ^125 I-leuprorelin\nTen μl of a 3×10^-4 M aqueous solution of leuprorelin and 10μl of 0.01 mg/ml lactoperoxidase in 0.1M Hepes buffer (pH7.4) were put in a tube, to which was added 10 μl of an Na^125 I solution (37 MBq). The mixture was stirred, to which was added 10 μl of 0.001% H2 O2, followed by allowing the reaction to proceed for 20 minutes at room temperature. To the reaction mixture was added 700 μl of a 0.05% TFA solution to stop the reaction. The product of was purified by means of a reverse-phase HPLC. Conditions of HPLC were as follows:\n(D) Preparation of membrane fraction of CHO (Chinese Hamster Ovary) cells containing human GnRH receptors\nCHO cells (10^9) expressing human GnRH receptors were suspended in a phosphate-buffered saline supplemented with 5 mM EDTA. The suspension was subjected to centrifugal separation for 5 minutes at 100×g. To the pellet of cells was added 10 ml of a homogenate buffer for cells (10 mM NaHCO3, 5 mM EDTA, pH 7.5), which was homogenated by using a Polytron homogenizer. Centrifugal separation was conducted for 15 minutes at 400×g. The supernatant was taken into an ultracentrifugal tube, which was subjected to centrifuge for one hour at 100,000×g to give precipitate of the membrane fraction. The precipitate was suspended in 2 ml of the assay buffer, which was centrifuged for one hour at 100,000×g. The membrane fraction recovered as precipitate was again suspended in 20 ml of the assay buffer, which was distributed to vials and stored at -80° C. until used.\n(E) Determination of inhibitory rate of ^125 I-leuprorelin binding\nIn the cases of using rat and human pituitary membrane fractions prepared in (B) and (D), they were respectively diluted with the assay buffer to 200 μg/ml and 188 μl each was distributed to tubes. In the case of using bovine pituitary membrane fraction prepared in (C), it was diluted with the assay buffer to 750 μg/ml and 188 μl each was distributed into tubes. In the case where the membrane fraction of anterior lobes of rat pituitary gland was used, 2 μl of a 0.1 mM compound dissolved in 60% DMSO (dimethylsulfoxide) and 10 μl of 38 nM ^125 I-leuprorelin were added thereto simultaneously. In the case where the membrane fraction of anterior lobes of bovine pituitary gland and the membrane fraction derived from the CHO cells expressing human GnRH receptors were used, 2 μl of a 2 mM compound dissolved in 60% DMSO and 10 μl of 38 nM ^125 I-leuproprelin were added simultaneously. For determining the maximum binding amount, a solution for reaction supplemented with 2 μl of 60% DMSO and 10 μl of 38 nM ^125 I-leuprorelin was prepared. And, for determining the amount of non-specific binding, a solution for reaction supplemented with 2 μl of 100 μM leuprorelin dissolved in 60% DMSO and 10 μl of 38 nM ^125 I-leuprorelin were also prepared simultaneously.\nIn the cases where membrane fractions of anterior lobes of rat and bovine pituitary were used, reaction was allowed to proceed at 4° C. for 90 minutes, while in the case where the membrane fraction derived from the CHO cells expressing human GnRH receptor was used, reaction was allowed to proceed at 25° C. for 60 minutes. The reaction mixtures were respectively subjected to filtration under sucking with Whatman glass filter (GF-F) processed with polyethyleneimine. After completing the filtration, radioactivity of the ^125 I-leuprorelin remaining on the filter paper was measured with a γ-counter.\nBy calculation of (TB-SB)/(TB-NSB)×100 (SB: radioactivity obtained when a compound was added, TB: radioactivity for the maximum binding, NSB: radioactivity for the non-specific binding), the binding inhibitory rate of each test compound was determined. Besides, the inhibitory rates were determined by changing the concentrations of test compounds, and the concentration of a test compound inhibiting the specific binding by 50% (IC50 value) was calculated by way of Hill plot.", "units": {"IC50": "µM"}}
{"smiles": "O=C1c2cccc(O)c2C(=O)N1CC(=O)N1c2ccccc2N(Cc2ccccc2)C(=O)[C@H]2CCC[C@H]21", "note": "(relative stereo) [compound 73]", "IC50": 9}
{"smiles": "O=C1c2ccccc2C(=O)N1CC(=O)N1c2ccccc2N(Cc2ccc3ccccc3c2)C(=O)[C@H]2CCC[C@H]21", "note": "(relative stereo) [compound 114]", "IC50": 0.6}
{"smiles": "O=C1c2ccccc2C(=O)N1CCCC(=O)N1c2ccccc2N(Cc2ccccc2)C(=O)[C@H]2CCC[C@H]21", "note": "(relative stereo) [compound 51]", "IC50": 12}
{"smiles": "O=C1c2ccncc2C(=O)N1CC(=O)N1c2ccccc2N(Cc2ccccc2)C(=O)[C@H]2CCC[C@H]21", "note": "(relative stereo) [compound 128]", "IC50": 15}
{"smiles": "O=C1[C@H]2CCC[C@H]2N(C(=O)CN2C(=O)c3ccccc3C2O)c2ccccc2N1Cc1ccccc1", "note": "(stereo partly shown) [compound 65]", "IC50": 14}
{"smiles": "O=C1c2cccc([N+](=O)[O-])c2C(=O)N1CC(=O)N1c2ccccc2N(Cc2ccccc2)C(=O)[C@H]2CCC[C@H]21", "note": "(relative stereo) [compound 72]", "IC50": 6}
{"smiles": "O=C1c2ccccc2C(=O)N1CC(=O)N1c2ccccc2N(Cc2ccc(F)cc2)C(=O)[C@H]2CCC[C@H]21", "note": "(relative stereo) [compound 191]", "IC50": 2}
{"smiles": "O=C1c2ccccc2C(=O)N1CC(=O)N1c2ccccc2N(Cc2ccc(O)cc2)C(=O)[C@H]2CCC[C@H]21", "note": "(relative stereo) [compound 214]", "IC50": 1}
{"smiles": "O=C1c2ccc(Cl)cc2C(=O)N1CC(=O)N1c2ccccc2N(Cc2ccccc2)C(=O)[C@H]2CCC[C@H]21", "note": "(relative stereo) [compound 69]", "IC50": 2}
{"smiles": "COC(=O)c1ccc2c(c1)C(=O)N(CC(=O)N1c3ccccc3N(Cc3ccccc3)C(=O)[C@H]3CCC[C@H]31)C2=O", "note": "(relative stereo) [compound 108]", "IC50": 8}
{"smiles": "CC1=C(C)C(=O)N(CC(=O)N2c3ccccc3N(Cc3ccccc3)C(=O)[C@H]3CCC[C@H]32)C1=O", "note": "(relative stereo) [compound 173]", "IC50": 7}
{"smiles": "Nc1cccc2c1C(=O)N(CC(=O)N1c3ccccc3N(Cc3ccccc3)C(=O)[C@H]3CCC[C@H]31)C2=O", "note": "(relative stereo) [compound 106]", "IC50": 5}
{"smiles": "O=C1c2ccccc2C(=O)N1CC(=O)N1c2ccccc2N(Cc2ccc([N+](=O)[O-])cc2)C(=O)[C@H]2CCC[C@H]21", "note": "(relative stereo) [compound 195]", "IC50": 0.5}
{"smiles": "O=C1C2=C(CCCC2)C(=O)N1CC(=O)N1c2ccccc2N(Cc2ccc3ccccc3c2)C(=O)[C@H]2CCC[C@H]21", "note": "(relative stereo) [compound 171]", "IC50": 0.3}
{"smiles": "O=C1C2=C(CCC2)C(=O)N1CC(=O)N1c2ccccc2N(Cc2ccccc2)C(=O)[C@H]2CCC[C@H]21", "note": "(relative stereo) [compound 176]", "IC50": 2}
{"smiles": "O=C1[C@H]2CCC[C@H]2N(C(=O)CNCc2ccccc2)c2ccccc2N1Cc1ccccc1", "note": "(relative stereo) [compound 138]", "IC50": 14}
{"smiles": "O=C1C2CCCCC2C(=O)N1CC(=O)N1c2ccccc2N(Cc2ccccc2)C(=O)[C@H]2CCC[C@H]21", "note": "(stereo partly shown) [compound 175]", "IC50": 1}
{"smiles": "O=C1c2ccc([N+](=O)[O-])cc2C(=O)N1CC(=O)N1c2ccccc2N(Cc2ccccc2)C(=O)[C@H]2CCC[C@H]21", "note": "(relative stereo) [compound 49]", "IC50": 2}
{"smiles": "COc1ccc(CN2C(=O)C3CCCC3N(C(=O)CN3C(=O)c4ccccc4C3=O)c3ccccc32)cc1", "note": "(stereo not shown) [compound 112]", "IC50": 2}
{"smiles": "O=C1c2ccccc2C(=O)N1CC(=O)N1c2ccccc2N(CCc2ccccc2)C(=O)[C@H]2CCC[C@H]21", "note": "(relative stereo) [compound 217]", "IC50": 0.7}
{"smiles": "CN(CC(=O)N1c2ccccc2N(Cc2ccccc2)C(=O)[C@H]2CCC[C@H]21)Cc1ccccc1", "note": "(relative stereo) [compound 139]", "IC50": 11}
{"smiles": "O=C1c2ccccc2C(=O)N1CC(=O)N1c2ccccc2N(Cc2ccc(Cl)cc2)C(=O)[C@H]2CCC[C@H]21", "note": "(relative stereo) [compound 169]", "IC50": 2}
{"smiles": "O=C1c2cccc3cccc(c23)C(=O)N1CC(=O)N1c2ccccc2N(Cc2ccccc2)C(=O)[C@H]2CCC[C@H]21", "note": "(relative stereo) [compound 75]", "IC50": 3}
{"smiles": "O=C1c2ccccc2C(=O)N1CC(=O)N1c2ccccc2N(Cc2ccccc2)C(=O)[C@H]2CCCC[C@H]21", "note": "(relative stereo) [compound 168]", "IC50": 3}
{"smiles": "O=C1Cc2ccccc2N1CC(=O)N1c2ccccc2N(Cc2ccccc2)C(=O)[C@H]2CCC[C@H]21", "note": "(relative stereo) [compound 136]", "IC50": 15}
{"smiles": "O=C1c2cccnc2C(=O)N1CC(=O)N1c2ccccc2N(Cc2ccccc2)C(=O)[C@H]2CCC[C@H]21", "note": "(relative stereo) [compound 78]", "IC50": 5}
{"smiles": "Cc1ccc2c(c1)C(=O)N(CC(=O)N1c3ccccc3N(Cc3ccccc3)C(=O)[C@H]3CCC[C@H]31)C2=O", "note": "(relative stereo) [compound 71]", "IC50": 9}
{"smiles": "COc1cccc(CN2C(=O)C3CCCC3N(C(=O)CN3C(=O)c4ccccc4C3=O)c3ccccc32)c1", "note": "(stereo not shown) [compound 111]", "IC50": 4}
{"smiles": "COc1cc(OC)cc(C(=O)NCC(=O)N2c3ccccc3N(Cc3ccccc3)C(=O)[C@H]3CCC[C@H]32)c1", "note": "(relative stereo) [compound 87]", "IC50": 16}
{"smiles": "O=C1c2ccccc2C(=O)N1CC(=O)N1c2ccccc2N(Cc2cccc(O)c2)C(=O)[C@H]2CCC[C@H]21", "note": "(relative stereo) [compound 215]", "IC50": 2}
{"smiles": "O=C1c2ccccc2C(=O)N1CC(=O)N1c2ccccc2N(Cc2ccc(-c3ccccc3)cc2)C(=O)[C@H]2CCC[C@H]21", "note": "(relative stereo) [compound 182]", "IC50": 2}
{"smiles": "O=C1Cc2ccccc2C(=O)N1CC(=O)N1c2ccccc2N(Cc2ccccc2)C(=O)[C@H]2CCC[C@H]21", "note": "(relative stereo) [compound 77]", "IC50": 5}
{"smiles": "O=C1c2ccccc2C(=O)N1CC(=O)N1c2ccccc2N(Cc2ccccc2F)C(=O)[C@H]2CCC[C@H]21", "note": "(relative stereo) [compound 194]", "IC50": 3}
{"smiles": "CC(=O)N(CC(=O)N1c2ccccc2N(Cc2ccccc2)C(=O)[C@H]2CCC[C@H]21)C(=O)c1ccccc1", "note": "(relative stereo) [compound 109]", "IC50": 6}
{"smiles": "O=C(c1ccccc1)N(CC(=O)N1c2ccccc2N(Cc2ccccc2)C(=O)[C@H]2CCC[C@H]21)Cc1ccccc1", "note": "(relative stereo) [compound 141]", "IC50": 14}
{"smiles": "N#Cc1ccc(CN2C(=O)[C@H]3CCC[C@H]3N(C(=O)CN3C(=O)c4ccccc4C3=O)c3ccccc32)cc1", "note": "(relative stereo) [compound 210]", "IC50": 0.4}
{"smiles": "O=C1c2ccccc2C(=O)N1CC(=O)N1c2ccccc2N(Cc2ccncc2)C(=O)[C@H]2CCC[C@H]21", "note": "(relative stereo) [compound 120]", "IC50": 4}
{"smiles": "O=C1c2ccc(F)cc2C(=O)N1CC(=O)N1c2ccccc2N(Cc2ccccc2)C(=O)[C@H]2CCC[C@H]21", "note": "(relative stereo) [compound 70]", "IC50": 2}
{"smiles": "O=C1c2ccccc2C(=O)N1CC(=O)N1c2ccccc2N(c2ccccc2)C(=O)C2CCCC21", "note": "(stereo not shown) [compound 121]", "IC50": 11}
{"smiles": "O=C1c2ccccc2C(=O)N1CC(=O)N1c2ccccc2N(Cc2cccc3ccccc23)C(=O)[C@H]2CCC[C@H]21", "note": "(relative stereo) [compound 113]", "IC50": 1}
